Active and inactive are the calls of the source. The rule behind the calls is not given here.

In the first experiment the test system is Plasmodium falciparum. As to the kind of experiment: Antiplasmodial activity against Plasmodium falciparum at 20 uM. The experiment is classed as functional, organism-based.
Take `C/C(=C/CC[C@@H](C)[C@H]1CC[C@@]2(C)C3=C(CC[C@]12C)[C@@]1(C)CCC(=O)C(C)(C)[C@@H]1CC3=O)C(=O)O`: the result was inactive. For `CC(C)=CCC/C(C)=C/CCC(C(=O)O)c1cc2cc(O)ccc2o1` (stereo not drawn), the outcome was inactive.

The subject of another experiment is Plasmodium falciparum. Briefly: Antiplasmodial activity against Plasmodium falciparum. The experiment is classed as functional, organism-based.
Take `C[C@H](CC[C@@H](O)C(C)(C)O)[C@H]1CC[C@@]2(C)C3=CC[C@H]4C(C)(C)C(=O)CC[C@]4(C)C3=CC[C@]12C` [GANODERMANONDIOL]: the midpoint of inhibition, the IC50, lay at 13 µM. As to `C/C(C=O)=C/CC[C@@H](C)[C@H]1C[C@H](O)[C@@]2(C)C3=CC[C@H]4C(C)(C)C(=O)CC[C@]4(C)C3=CC[C@]12C` [GANODERIC ALDEHYDE TR], the IC50 – broadly, the concentration needed to halve the response being measured – worked out at 6 µM. This IC50 is about 2.2-fold lower than that of the compound before. `C/C(=C/CC[C@@H](C)[C@H]1CC[C@@]2(C)C3=CC[C@H]4C(C)(C)C(=O)CC[C@]4(C)C3=CC[C@]12C)C(=O)O` [GANODERIC ACID S] displayed an IC50 of 11 µM.

As to `C/C(=C/C(O)C[C@@H](C)[C@H]1CC[C@@]2(C)C3=CC[C@H]4C(C)(C)C(O)CC[C@]4(C)C3=CC[C@]12C)C(=O)O` (stereo partly drawn), the IC50 was determined as 11 µM.

For the compound `C/C(=C\CC[C@@H](C)[C@H]1C[C@@H](O)[C@@]2(C)C3=CC[C@H]4C(C)(C)C(=O)CC[C@]4(C)C3=CC[C@]12C)C(=O)O` [GANODERIC ACID TR 1], half-maximal inhibition (IC50) was put at 18 µM.

Compound `C/C(=C/CC[C@@H](C)[C@H]1C[C@H](O)[C@@]2(C)C3=CC[C@H]4C(C)(C)C(=O)CC[C@]4(C)C3=CC[C@]12C)C(=O)O` [GANODERIC ACID TR] came in with an IC50 of 20 µM. The IC50 values of the last two compounds are within 1.5-fold of each other.
